Numbering of substitutions follows the chain as printed. Entries after “also recorded” stand apart in the source; their conditions may differ. Where two headings read alike, the source gives them in different places.
Tests used:
Assay in all cases: PapG Luminex ligand binding at equilibrium
[1] = target: T1, E. coli CFT073 PapG-II lectin domain PapGLD N96S WT v1, SEQ ID NO: 13 (Escherichia coli, UniProt A0A0H2VAQ6, N116S); settings: HEPES pH 7.4, 4° C. overnight
T1 sequence (A0A0H2VAQ6 with tags, fused parts or gaps N116S): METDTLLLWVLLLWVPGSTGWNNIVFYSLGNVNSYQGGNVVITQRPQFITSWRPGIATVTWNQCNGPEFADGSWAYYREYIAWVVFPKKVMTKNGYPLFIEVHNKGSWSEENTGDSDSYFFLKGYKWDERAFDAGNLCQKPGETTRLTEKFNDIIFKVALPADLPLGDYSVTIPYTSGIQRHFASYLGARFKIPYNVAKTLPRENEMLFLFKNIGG
Procedure: (§1) To determine the ability of PapGLD mutants to bind the porcine derived globotetraosyl ceramide ligand GalNAc-Gal-Gal-Glc-ceramide (GbO4), a Luminex ligand binding assay was developed. Surfactant Protein-A (SP-A) was coupled to the surface of MagPlex beads by EDC/NHS, to capture the lipid tail of the globotetraosyl ceramide. The Globotetraosyl ceramide/SP-A beads were incubated with an eight-point threefold titration of PapG in a 96 well flat bottom white plate with final volume of 100 microliters of 50 mM HEPES PH 7.4, 10 mM NaCl, 0.0005% Tween 20 shaking at 300 rpm, 4° C. overnight. After 20-24 hours the ligand binding plates were read on a FlexMap 3D plate reader for measurement of well-bead region specific MFI. Ligand binding equilibrium dissociation constants (Kd) were calculated assuming one site specific binding and interpolated using non-linear curve fitting (GraphPad Prism) as the ligand concentration needed to achieve half-maximal binding. The Luminex derived apparent Kd values are based on approximately fifty bead counts per assay sample.
(§2) To determine Luminex ligand binding affinities of PapG mutants for the synthetic globoside ligand Gal-Glc-phenoxy-octyl-amine (GbO2Mpo), a Luminex ligand binding assay was developed based on the direct coupling of the amine reactive globoside ligand to the EDC/NHS activated carboxylic surface of MagPlex beads. Synthesis of GbO2Mpo ligand with an octyl amine linker (for coupling to beads) was performed via methods described previously. The GbO2Mpo beads were incubated with an 8-point, threefold titration of PapG in a 96-well flat bottom white plate with final volume of 100 μl of 50 mM HEPES pH 7.4, 10 mM NaCl, 0.0005% Tween 20 shaking at 300 rpm, 4° C. overnight. After 20-24 hours the ligand binding plates were read on a FlexMap 3D plate reader for measurement of well-bead region specific MFI.
(§3) Binding of PapG proteins to GbO2 or GbO4 ligands was evaluated using a Luminex platform wherein ligands were coupled to MagPlex beads via surfactant protein A (for […]) or directly using […] conjugation (for […]). This assay was used to rank order binding affinities of the mutants, reported as Kd values interpolated from protein antigen titration curves (Table 7).

[2] = target: T2, E. coli CFT073 PapG-II lectin domain PapGLD N96S WT v2 (Escherichia coli, UniProt A0A0H2VDP3, N116S); settings: HEPES pH 7.4, 4° C. overnight
T2 sequence (A0A0H2VDP3 21-216 N116S): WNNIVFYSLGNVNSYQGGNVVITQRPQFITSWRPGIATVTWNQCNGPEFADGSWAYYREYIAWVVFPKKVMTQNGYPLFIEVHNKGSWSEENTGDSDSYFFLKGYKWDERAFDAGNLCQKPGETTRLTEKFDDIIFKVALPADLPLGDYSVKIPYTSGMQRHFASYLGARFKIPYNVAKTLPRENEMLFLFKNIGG
Procedure: as §1, §2, §3

[3] = target: T3, E. coli CFT073 PapG-II lectin domain PapGLD variant N96S G104A, SEQ ID NO: 16 (Escherichia coli, UniProt A0A0H2VAQ6, G124A/N116S); settings: for Kd: HEPES pH 7.4, 4° C. overnight
T3 sequence (A0A0H2VAQ6 with tags, fused parts or gaps N116S/G124A): T1 sequence (A0A0H2VAQ6 with tags, fused parts or gaps N116S) with G124A
Procedure: as §1, §2, §3

[4] = target: T4, E. coli CFT073 PapG-II lectin domain PapGLD variant N96S G168A, SEQ ID NO: 17 (Escherichia coli, UniProt A0A0H2VAQ6, G188A/N116S); settings: HEPES pH 7.4, 4° C. overnight
T4 sequence (A0A0H2VAQ6 with tags, fused parts or gaps N116S/G188A): T1 sequence (A0A0H2VAQ6 with tags, fused parts or gaps N116S) with G188A
Procedure: as §1, §2, §3

[5] = target: T5, E. coli CFT073 PapG-II lectin domain PapGLD variant N96S G18A, SEQ ID NO: 18 (Escherichia coli, UniProt A0A0H2VAQ6, G38A/N116S); settings: HEPES pH 7.4, 4° C. overnight
T5 sequence (A0A0H2VAQ6 with tags, fused parts or gaps G38A/N116S): T1 sequence (A0A0H2VAQ6 with tags, fused parts or gaps N116S) with G38A
Procedure: as §1, §2, §3

[6] = target: T6, E. coli CFT073 PapG-II lectin domain PapGLD variant N96S G75A, SEQ ID NO: 19 (Escherichia coli, UniProt A0A0H2VAQ6, G95A/N116S); settings: HEPES pH 7.4, 4° C. overnight
T6 sequence (A0A0H2VAQ6 with tags, fused parts or gaps G95A/N116S): T1 sequence (A0A0H2VAQ6 with tags, fused parts or gaps N116S) with G95A
Procedure: as §1, §2, §3

[7] = GbO2Mpo beads, read-out: Kd (GbO2)
[8] = GbO4 beads, read-out: Kd (GbO4)

Substance Gal-Glc-phenoxy-octyl-amine [GbO2] has a Kd [1, 7] of 0.7 nM, a Kd [2, 7] of 1.1 nM and a Kd [3, 7] greater than 300 nM. For the same substance, the Kd [4, 7] was 2.7 nM, the Kd [5, 7] was 1.8 nM and the Kd [6, 7] was 2.2 nM.
In the case of GalNAc-Gal-Gal-Glc-ceramide [GbO4], the Kd [1, 8] is reported as 14.1 nM, the Kd [2, 8] is reported as 29 nM and the “binding to GbO4 (in words)” value [3] is reported as “lower the binding affinity; also recorded: eliminate ligand binding”. The Kd [3, 8] was greater than 300 nM, the Kd [4, 8] was greater than 100 nM and the Kd [5, 8] was greater than 10 nM. It also gave a Kd [6, 8] greater than 10 nM.

Source: patent US20260061042A1, “POLYNUCLEOTIDE COMPOSITIONS AND USES THEREOF” (Pfizer Inc., priority 2024, published 2026)
